Values joined by “and” are separate entries in the source; they are usually repeats but may differ in a detail not shown here. Equal entries are not always repeated. “Also recorded” adds a separate entry of the source. One block for each compound: values may come before it. Peptide text beside a SMILES is read from it.
Assay: Surface tension measurement, Kruss Processor Tensiometer-K12, Wilhelmy-method (plate method)
Assay type: physicochemical
Settings: for Surface tension, 25° C. Extrapolated Values at 2 mg/ml / Surface tension, 45° C. Extrapolated Values at 2 mg/ml: extrapolated to 2 mg/ml
Description: A “surface active” material is one having surface activity (measured, e.g., by surface tensiometry), as characterized by its ability to reduce the surface tension of the liquid in which it is dissolved. […] A peptide that is more surface active than another peptide is one which decreases the surface tension of water to a greater extent, when present in the liquid at the same concentration and measured under the same set of experimental conditions. The surface tension of several representative dipeptides, tripeptides, and proteins was measured at 25° C. and 45° C. to provide an indication of their relative surface activities. Surface tension measurements were carried out using a Kruss Processor Tensiometer-K12 with the Wilhelmy-method (Plate method). Solutions were prepared by dissolving either 0.05%, 0.2%, or 0.6% peptide/protein (by weight) along with an appropriate amount of raffinose by weight to provide final solutions having a 1.0% by weight solids content. Surface tension measurements at 25° C. and 45° C. were then obtained for the test solutions at three different time points (49 seconds, 100 seconds and 194 seconds).

[1] = 0.2% (wt/vol) plus raffinose to 1% total solids, 25° C., 49 s
[2] = 0.2% (wt/vol) plus raffinose to 1% total solids, 25° C., 100 s
[3] = 0.2% (wt/vol) plus raffinose to 1% total solids, 25° C., 194 s
[4] = Table 2: 0.20% (wt/vol) plus 0.80% raffinose, 25° C., 49 s
[5] = Table 2: 0.20% (wt/vol) plus 0.80% raffinose, 25° C., 100 s
[6] = Table 2: 0.20% (wt/vol) plus 0.80% raffinose, 25° C., 194 s

Compound: tri-valine [reference compound]
Surface activity (ability to lower the surface tension of water), in words: not particularly effective at lowering the surface tension of water | Surface tension (ST) [4]: 68.8 mN/m and 68.7 mN/m | Surface tension (ST) [5]: 68.8 mN/m and 68.7 mN/m | Surface tension (ST) [6]: 68.8 mN/m and 68.7 mN/m

Compound: dileucine [di-leucine]
Surface activity (ability to lower the surface tension of water), in words: highly surface active; also recorded: more effective than any of the other dimers examined in reducing the surface tension of water | Surface tension, Actual MEAN (1.51 mg/ml, 25° C.): 61.5 mN/m | Surface tension, Actual MEAN (1.51 mg/ml, 45° C.): 53.2 mN/m | Surface tension, Actual MEAN (4.53 mg/ml, 25° C.): 54.9 mN/m | Surface tension, Actual MEAN (4.53 mg/ml, 45° C.): 48.2 mN/m | Surface tension, Actual MEAN (13.60 mg/ml, 25° C.): 46.6 mN/m | Surface tension, Actual MEAN (13.60 mg/ml, 45° C.): 42.7 mN/m | Surface tension (ST) [1]: 58.4 mN/m and 58.7 mN/m and 60.1 mN/m | Surface tension (ST) [2]: 58.1 mN/m and 58.3 mN/m and 59.8 mN/m | Surface tension (ST) [3]: 57.9 mN/m and 58.2 mN/m and 59.7 mN/m | Surface tension, 25° C. Extrapolated Values at 2 mg/ml (25° C.): 60.4 mN/m | Surface tension, 45° C. Extrapolated Values at 2 mg/ml (45° C.): 52.4 mN/m

Compound: leu-phe-leu
Surface tension, Actual MEAN (0.68 mg/ml, 25° C.): 54.7 mN/m | Surface tension, Actual MEAN (0.68 mg/ml, 45° C.): 53.6 mN/m | Surface tension, Actual MEAN (2.03 mg/ml, 25° C.): 48.3 mN/m | Surface tension, Actual MEAN (2.03 mg/ml, 45° C.): 46.2 mN/m | Surface tension, Actual MEAN (6.10 mg/ml, 25° C.): 41.5 mN/m | Surface tension, Actual MEAN (6.10 mg/ml, 45° C.): 39.3 mN/m | Surface tension, 25° C. Extrapolated Values at 2 mg/ml (25° C.): 48.3 mN/m | Surface tension, 45° C. Extrapolated Values at 2 mg/ml (45° C.): 46.2 mN/m

The next lines start with results.

Surface activity (ability to lower the surface tension of water), in words: highly surface active | Surface tension, Actual MEAN (0.68 mg/ml, 25° C.): 56.9 mN/m | Surface tension, Actual MEAN (0.68 mg/ml, 45° C.): 52.8 mN/m | Surface tension, Actual MEAN (2.03 mg/ml, 25° C.): 49.7 mN/m | Surface tension, Actual MEAN (2.03 mg/ml, 45° C.): 46.3 mN/m | Surface tension, Actual MEAN (6.10 mg/ml, 25° C.): 42.4 mN/m | Surface tension, Actual MEAN (6.10 mg/ml, 45° C.): 38.9 mN/m | Surface tension (ST) (0.05%, pH4, raffinose to 1% solids, 25° C., 49 s, listed as leu3): 59.9 mN/m and 60.4 mN/m | Surface tension (ST) (0.05%, pH4, raffinose to 1% solids, 25° C., 100 s, listed as leu3): 59.8 mN/m and 60.3 mN/m | Surface tension (ST) (0.05%, pH4, raffinose to 1% solids, 25° C., 194 s, listed as leu3): 59.7 mN/m and 60.2 mN/m | Surface tension (ST) (0.05%, pH4, raffinose to 1% solids, 45° C., 49 s, listed as leu3): 57.1 mN/m and 58.1 mN/m and 58 mN/m | Surface tension (ST) (0.05%, pH4, raffinose to 1% solids, 45° C., 100 s, listed as leu3): 57 mN/m and 57.9 mN/m and 57.8 mN/m | Surface tension (ST) (0.05%, pH4, raffinose to 1% solids, 45° C., 194 s, listed as leu3): 57 mN/m and 57.8 mN/m | Surface tension (ST) (0.05%, pH7, raffinose to 1% solids, 25° C., 49 s, listed as leu3): 60.1 mN/m and 60 mN/m and 60.2 mN/m | Surface tension (ST) (0.05%, pH7, raffinose to 1% solids, 25° C., 100 s, listed as leu3): 59.8 mN/m and 60 mN/m | Surface tension (ST) (0.05%, pH7, raffinose to 1% solids, 25° C., 194 s, listed as leu3): 59.7 mN/m and 59.8 mN/m | Surface tension (ST) (0.05%, pH7, raffinose to 1% solids, 45° C., 49 s, listed as leu3): 58.5 mN/m and 58.2 mN/m | Surface tension (ST) (0.05%, pH7, raffinose to 1% solids, 45° C., 100 s, listed as leu3): 58.4 mN/m and 58.2 mN/m and 58.1 mN/m | Surface tension (ST) (0.05%, pH7, raffinose to 1% solids, 45° C., 194 s, listed as leu3): 58.4 mN/m and 58.1 mN/m | Surface tension (ST) [1]: 51 mN/m | Surface tension (ST) [2]: 50.9 mN/m and 50.8 mN/m | Surface tension (ST) [3]: 50.9 mN/m and 50.7 mN/m | Surface tension (ST) (0.2%, pH4, raffinose to 1% solids, 25° C., 49 s): 51.4 mN/m | Surface tension (ST) (0.2%, pH4, raffinose to 1% solids, 25° C., 100 s, listed as leu3): 51.2 mN/m and 51.3 mN/m | Surface tension (ST) (0.2%, pH4, raffinose to 1% solids, 25° C., 194 s, listed as leu3): 51.1 mN/m and 51.2 mN/m | Surface tension (ST) (0.2%, pH4, raffinose to 1% solids, 45° C., 49 s, listed as leu3): 47.9 mN/m and 47.2 mN/m | Surface tension (ST) (0.2%, pH4, raffinose to 1% solids, 45° C., 100 s, listed as leu3): 47.5 mN/m and 47.2 mN/m and 47.3 mN/m | Surface tension (ST) (0.2%, pH4, raffinose to 1% solids, 45° C., 194 s, listed as leu3): 47.4 mN/m and 47.3 mN/m and 47.1 mN/m | Surface tension (ST) (0.2%, pH7, raffinose to 1% solids, 25° C., 49 s, listed as leu3): 51 mN/m and 50.9 mN/m and 50.7 mN/m | Surface tension (ST) (0.2%, pH7, raffinose to 1% solids, 25° C., 100 s, listed as leu3): 50.8 mN/m and 50.7 mN/m and 50.5 mN/m | Surface tension (ST) (0.2%, pH7, raffinose to 1% solids, 25° C., 194 s, listed as leu3): 50.7 mN/m and 50.6 mN/m and 50.4 mN/m | Surface tension (ST) (0.2%, pH7, raffinose to 1% solids, 45° C., 49 s, listed as leu3): 58.5 mN/m and 58.2 mN/m | Surface tension (ST) (0.2%, pH7, raffinose to 1% solids, 45° C., 100 s, listed as leu3): 58.4 mN/m and 58.2 mN/m and 58.1 mN/m | Surface tension (ST) (0.2%, pH7, raffinose to 1% solids, 45° C., 194 s, listed as leu3): 58.4 mN/m and 58.1 mN/m | Surface tension (ST) (0.6%, pH4, raffinose to 1% solids, 25° C., 49 s, listed as leu3): 44.2 mN/m and 44.3 mN/m | Surface tension (ST) (0.6%, pH4, raffinose to 1% solids, 25° C., 100 s, listed as leu3): 44.1 mN/m and 44.2 mN/m | Surface tension (ST) (0.6%, pH4, raffinose to 1% solids, 25° C., 194 s, listed as leu3): 44 mN/m and 44.2 mN/m and 44.1 mN/m | Surface tension (ST) (0.6%, pH4, raffinose to 1% solids, 45° C., 49 s, listed as leu3): 40.9 mN/m and 41.1 mN/m | Surface tension (ST) (0.6%, pH4, raffinose to 1% solids, 45° C., 100 s, listed as leu3): 40.9 mN/m and 41 mN/m | Surface tension (ST) (0.6%, pH4, raffinose to 1% solids, 45° C., 194 s, listed as leu3): 40.8 mN/m and 40.9 mN/m | Surface tension (ST) (0.6%, pH7, raffinose to 1% solids, 25° C., 49 s, listed as leu3): 43.7 mN/m and 43.8 mN/m | Surface tension (ST) (0.6%, pH7, raffinose to 1% solids, 25° C., 100 s): 43.7 mN/m | Surface tension (ST) (0.6%, pH7, raffinose to 1% solids, 25° C., 194 s, listed as leu3): 43.6 mN/m and 43.7 mN/m | Surface tension of water lowered to (concentration of 0.68 mg/ml): about 57 mN/m | Surface tension of water lowered to (concentration of 1.20 mg/ml, water about 72 mN/m): 42 mN/m | Surface tension, 25° C. Extrapolated Values at 2 mg/ml (25° C.): 49.7 mN/m | Surface tension, 45° C. Extrapolated Values at 2 mg/ml (45° C.): 46.3 mN/m
Compound: CC(C)CC(N)C(=O)NC(CC(C)C)C(=O)NC(CC(C)C)C(=O)O (stereo not drawn) [tri-leucine, trileucine] (H-Leu-Leu-Leu-OH; configuration not given here)

Surface tension, Actual MEAN (1.11 mg/ml, 25° C.): 71.6 mN/m | Surface tension, Actual MEAN (1.11 mg/ml, 45° C.): 66.3 mN/m | Surface tension, Actual MEAN (3.33 mg/ml, 25° C.): 70.1 mN/m | Surface tension, Actual MEAN (3.33 mg/ml, 45° C.): 65.3 mN/m | Surface tension, Actual MEAN (10.00 mg/ml, 25° C.): 66.1 mN/m | Surface tension, Actual MEAN (10.00 mg/ml, 45° C.): 61.9 mN/m | Surface tension, 25° C. Extrapolated Values at 2 mg/ml (25° C.): 70.3 mN/m | Surface tension, 45° C. Extrapolated Values at 2 mg/ml (45° C.): 65.8 mN/m
Compound: Val-Ile [reference compound]

Surface tension, Actual MEAN (0.87 mg/ml, 25° C.): 70 mN/m | Surface tension, Actual MEAN (0.87 mg/ml, 45° C.): 65.5 mN/m | Surface tension, Actual MEAN (2.60 mg/ml, 25° C.): 69.5 mN/m | Surface tension, Actual MEAN (2.60 mg/ml, 45° C.): 65.0 mN/m | Surface tension, Actual MEAN (7.80 mg/ml, 25° C.): 68 mN/m | Surface tension, Actual MEAN (7.80 mg/ml, 45° C.): 63.5 mN/m | Surface tension, 25° C. Extrapolated Values at 2 mg/ml (25° C.): 69.8 mN/m | Surface tension, 45° C. Extrapolated Values at 2 mg/ml (45° C.): 65.3 mN/m
Compound: Val-Leu [reference compound]

Surface tension (ST) [4]: 71.7 mN/m and 71.6 mN/m | Surface tension (ST) [5]: 71.6 mN/m | Surface tension (ST) [6]: 71.6 mN/m
Compound: di-valine [reference compound]
Surface activity (ability to lower the surface tension of water), in words: not particularly effective at lowering the surface tension of water
